Test results: the supplement of paper PMC10883282

Columns and labels:
Test in all cases: relative viability vs DMSO control (72 h) (fraction); higher = more viable cells
SYO-1 = tested on: SYO-1
Method in brief: (§1)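 Sarcoma cell lines in 384-well plates, seeded to reach 80–90% confluence, were given compound after 24 h and kept 72 h at 37 °C, 5% CO2, with 0.1% DMSO vehicle and a 5 µM positive control. Relative viability came from ATPLite as percent growth, averaged over up to triplicate wells. On the rescaled values, 1 equals full and 0 equals none.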

HT1080 = tested on: HT1080
Method in brief: as §1

KHOS-NP = tested on: KHOS-NP
Method in brief: as §1

VA-ES-BJ = tested on: VA-ES-BJ
Method in brief: as §1

SK-LMS-1 = tested on: SK-LMS-1
Method in brief: as §1

A204 = tested on: A204
Method in brief: as §1

HS729 = tested on: HS729
Method in brief: as §1

SW684 = tested on: SW684
Method in brief: as §1

SW872 = tested on: SW872
Method in brief: as §1

SW1353 = tested on: SW1353
Method in brief: as §1

MES-SA = tested on: MES-SA
Method in brief: as §1

G401 = tested on: G401
Method in brief: as §1

COc1cc(Nc2c(C#N)cnc3cc(OCCCN4CCN(C)CC4)c(OC)cc23)c(Cl)cc1Cl [Bosutinib]
Settings	relative viability
A204, 0.00017 µM	1.09
A204, 0.00051 µM	1.12
A204, 0.00152 µM	1.09
A204, 0.00457 µM	1.13
A204, 0.01372 µM	1.17
A204, 0.04115 µM	1.21
A204, 0.1235 µM	1.23
A204, 0.3704 µM	1.21
A204, 1.111 µM	1.111
A204, 3.333 µM	0.807
A204, 10 µM	0.259
G401, 0.00017 µM	1.09
G401, 0.00051 µM	1.09
G401, 0.00152 µM	1.08
G401, 0.00457 µM	1.06
G401, 0.01372 µM	1.09
G401, 0.04115 µM	1.09
G401, 0.1235 µM	1.08
G401, 0.3704 µM	1.08
G401, 1.111 µM	1.03
G401, 3.333 µM	0.909
G401, 10 µM	0.0203
HS729, 0.00017 µM	1.06
HS729, 0.00051 µM	1.04
HS729, 0.00152 µM	1.1
HS729, 0.00457 µM	1.05
HS729, 0.01372 µM	1.07
HS729, 0.04115 µM	1.05
HS729, 0.1235 µM	0.978
HS729, 0.3704 µM	0.922
HS729, 1.111 µM	0.773
HS729, 3.333 µM	0.79
HS729, 10 µM	0.107
HT1080, 0.00017 µM	1.14
HT1080, 0.00051 µM	1.14
HT1080, 0.00152 µM	1.09
HT1080, 0.00457 µM	1.14
HT1080, 0.01372 µM	1.11
HT1080, 0.04115 µM	1.16
HT1080, 0.1235 µM	1.14
HT1080, 0.3704 µM	1.14
HT1080, 1.111 µM	1.05
HT1080, 3.333 µM	0.775
HT1080, 10 µM	0.0548
KHOS-NP, 0.00017 µM	1.08
KHOS-NP, 0.00051 µM	1.12
KHOS-NP, 0.00152 µM	1.13
KHOS-NP, 0.00457 µM	1.11
KHOS-NP, 0.01372 µM	1.117
KHOS-NP, 0.04115 µM	1.11
KHOS-NP, 0.1235 µM	1.1
KHOS-NP, 0.3704 µM	1.01
KHOS-NP, 1.111 µM	0.837
KHOS-NP, 3.333 µM	0.482
KHOS-NP, 10 µM	0.264
MES-SA, 0.00017 µM	1.018
MES-SA, 0.00051 µM	0.992
MES-SA, 0.00152 µM	1.01
MES-SA, 0.00457 µM	0.979
MES-SA, 0.01372 µM	0.989
MES-SA, 0.04115 µM	0.993
MES-SA, 0.1235 µM	0.994
MES-SA, 0.3704 µM	0.926
MES-SA, 1.111 µM	0.675
MES-SA, 3.333 µM	0.432
MES-SA, 10 µM	0.228
SK-LMS-1, 0.00017 µM	1.06
SK-LMS-1, 0.00051 µM	1.07
SK-LMS-1, 0.00152 µM	1.08
SK-LMS-1, 0.00457 µM	1.07
SK-LMS-1, 0.01372 µM	1.1
SK-LMS-1, 0.04115 µM	1.16
SK-LMS-1, 0.1235 µM	1.22
SK-LMS-1, 0.3704 µM	1.24
SK-LMS-1, 1.111 µM	1.1
SK-LMS-1, 3.333 µM	0.873
SK-LMS-1, 10 µM	0.0696
SW684, 0.00017 µM	1.24
SW684, 0.00051 µM	1.25
SW684, 0.00152 µM	1.306
SW684, 0.00457 µM	1.27
SW684, 0.01372 µM	1.25
SW684, 0.04115 µM	1.28
SW684, 0.1235 µM	1.33
SW684, 0.3704 µM	1.31
SW684, 1.111 µM	1.05
SW684, 3.333 µM	0.6
SW684, 10 µM	0.101
SW872, 0.00017 µM	1.1
SW872, 0.00051 µM	1.131
SW872, 0.00152 µM	1.12
SW872, 0.00457 µM	1.12
SW872, 0.01372 µM	1.12
SW872, 0.04115 µM	1.123
SW872, 0.1235 µM	1.085
SW872, 0.3704 µM	0.984
SW872, 1.111 µM	0.727
SW872, 3.333 µM	0.555
SW872, 10 µM	0.0547
SW1353, 0.00017 µM	1.11
SW1353, 0.00051 µM	1.11
SW1353, 0.00152 µM	1.12
SW1353, 0.00457 µM	1.09
SW1353, 0.01372 µM	1.1
SW1353, 0.04115 µM	1.13
SW1353, 0.1235 µM	1.09
SW1353, 0.3704 µM	1.04
SW1353, 1.111 µM	0.896
SW1353, 3.333 µM	0.673
SW1353, 10 µM	0.0287
SYO-1, 0.00017 µM	1.04
SYO-1, 0.00051 µM	1.03
SYO-1, 0.00152 µM	1.02
SYO-1, 0.00457 µM	1.04
SYO-1, 0.01372 µM	1.01
SYO-1, 0.04115 µM	0.989
SYO-1, 0.1235 µM	0.966
SYO-1, 0.3704 µM	0.966
SYO-1, 1.111 µM	0.868
SYO-1, 3.333 µM	0.641
SYO-1, 10 µM	-0.0056
VA-ES-BJ, 0.00017 µM	1.11
VA-ES-BJ, 0.00051 µM	1.14
VA-ES-BJ, 0.00152 µM	1.12
VA-ES-BJ, 0.00457 µM	1.12
VA-ES-BJ, 0.01372 µM	1.14
VA-ES-BJ, 0.04115 µM	1.16
VA-ES-BJ, 0.1235 µM	1.14
VA-ES-BJ, 0.3704 µM	1.03
VA-ES-BJ, 1.111 µM	0.729
VA-ES-BJ, 3.333 µM	0.545
VA-ES-BJ, 10 µM	0.0514

COc1cc(OC)cc(N(CCNC(C)C)c2ccc3ncc(-c4cnn(C)c4)nc3c2)c1 [Erdafitinib]
Settings	relative viability
A204, 0.00017 µM	1.04
A204, 0.00051 µM	1.03
A204, 0.00152 µM	0.971
A204, 0.00457 µM	0.934
A204, 0.01372 µM	0.746
A204, 0.04115 µM	0.595
A204, 0.1235 µM	0.422
A204, 0.3704 µM	0.322
A204, 1.111 µM	0.194
A204, 3.333 µM	0.127
A204, 10 µM	0.0417
G401, 0.00017 µM	0.991
G401, 0.00051 µM	0.976
G401, 0.00152 µM	0.933
G401, 0.00457 µM	0.806
G401, 0.01372 µM	0.707
G401, 0.04115 µM	0.591
G401, 0.1235 µM	0.534
G401, 0.3704 µM	0.472
G401, 1.111 µM	0.376
G401, 3.333 µM	0.233
G401, 10 µM	0.121
HS729, 0.00017 µM	1
HS729, 0.00051 µM	0.868
HS729, 0.00152 µM	0.844
HS729, 0.00457 µM	0.813
HS729, 0.01372 µM	0.74
HS729, 0.04115 µM	0.613
HS729, 0.1235 µM	0.604
HS729, 0.3704 µM	0.549
HS729, 1.111 µM	0.487
HS729, 3.333 µM	0.423
HS729, 10 µM	0.37
HT1080, 0.00017 µM	1.06
HT1080, 0.00051 µM	1.09
HT1080, 0.00152 µM	1.05
HT1080, 0.00457 µM	1.07
HT1080, 0.01372 µM	1.02
HT1080, 0.04115 µM	1.05
HT1080, 0.1235 µM	1.08
HT1080, 0.3704 µM	1.06
HT1080, 1.111 µM	1.02
HT1080, 3.333 µM	0.959
HT1080, 10 µM	0.41
KHOS-NP, 0.00017 µM	1.07
KHOS-NP, 0.00051 µM	1.06
KHOS-NP, 0.00152 µM	1.05
KHOS-NP, 0.00457 µM	1.06
KHOS-NP, 0.01372 µM	1.04
KHOS-NP, 0.04115 µM	1.04
KHOS-NP, 0.1235 µM	1.02
KHOS-NP, 0.3704 µM	1.01
KHOS-NP, 1.111 µM	0.999
KHOS-NP, 3.333 µM	0.943
KHOS-NP, 10 µM	0.638
MES-SA, 0.00017 µM	0.911
MES-SA, 0.00051 µM	0.9276
MES-SA, 0.00152 µM	0.909
MES-SA, 0.00457 µM	0.85
MES-SA, 0.01372 µM	0.837
MES-SA, 0.04115 µM	0.741
MES-SA, 0.1235 µM	0.679
MES-SA, 0.3704 µM	0.667
MES-SA, 1.111 µM	0.616
MES-SA, 3.333 µM	0.409
MES-SA, 10 µM	0.148
SK-LMS-1, 0.00017 µM	0.987
SK-LMS-1, 0.00051 µM	0.991
SK-LMS-1, 0.00152 µM	0.994
SK-LMS-1, 0.00457 µM	1
SK-LMS-1, 0.01372 µM	0.999
SK-LMS-1, 0.04115 µM	0.954
SK-LMS-1, 0.1235 µM	0.946
SK-LMS-1, 0.3704 µM	0.913
SK-LMS-1, 1.111 µM	0.839
SK-LMS-1, 3.333 µM	0.673
SK-LMS-1, 10 µM	0.183
SW684, 0.00017 µM	1.1
SW684, 0.00051 µM	1.17
SW684, 0.00152 µM	1.13
SW684, 0.00457 µM	1.1
SW684, 0.01372 µM	1.08
SW684, 0.04115 µM	1.04
SW684, 0.1235 µM	1.06
SW684, 0.3704 µM	1.09
SW684, 1.111 µM	0.998
SW684, 3.333 µM	0.739
SW684, 10 µM	0.39
SW872, 0.00017 µM	1.03
SW872, 0.00051 µM	1.05
SW872, 0.00152 µM	1.07
SW872, 0.00457 µM	1.01
SW872, 0.01372 µM	0.989
SW872, 0.04115 µM	0.985
SW872, 0.1235 µM	0.949
SW872, 0.3704 µM	0.912
SW872, 1.111 µM	0.717
SW872, 3.333 µM	0.5
SW872, 10 µM	0.274
SW1353, 0.00017 µM	1.07
SW1353, 0.00051 µM	1.01
SW1353, 0.00152 µM	0.975
SW1353, 0.00457 µM	0.889
SW1353, 0.01372 µM	0.859
SW1353, 0.04115 µM	0.853
SW1353, 0.1235 µM	0.787
SW1353, 0.3704 µM	0.781
SW1353, 1.111 µM	0.745
SW1353, 3.333 µM	0.57
SW1353, 10 µM	0.0859
SYO-1, 0.00017 µM	0.933
SYO-1, 0.00051 µM	0.814
SYO-1, 0.00152 µM	0.734
SYO-1, 0.00457 µM	0.674
SYO-1, 0.01372 µM	0.588
SYO-1, 0.04115 µM	0.519
SYO-1, 0.1235 µM	0.451
SYO-1, 0.3704 µM	0.396
SYO-1, 1.111 µM	0.342
SYO-1, 3.333 µM	0.248
SYO-1, 10 µM	-0.0109
VA-ES-BJ, 0.00017 µM	1.08
VA-ES-BJ, 0.00051 µM	1.05
VA-ES-BJ, 0.00152 µM	1.06
VA-ES-BJ, 0.00457 µM	1.02
VA-ES-BJ, 0.01372 µM	1.04
VA-ES-BJ, 0.04115 µM	1.03
VA-ES-BJ, 0.1235 µM	1.06
VA-ES-BJ, 0.3704 µM	1.04
VA-ES-BJ, 1.111 µM	0.92
VA-ES-BJ, 3.333 µM	0.612
VA-ES-BJ, 10 µM	0.355
